{"source": "ChEMBL document CHEMBL1275583", "about": "“First report of KPC-2-producing Klebsiella pneumoniae strains in Brazil” (2009)", "key": {"Klebsiella pneumoniae [1]": {"test_system": "Klebsiella pneumoniae", "assay": "Antibacterial activity against Klebsiella pneumoniae blood isolate A28006 PFGE pattern A expressing KPC-2, TEM-1, SHV-11, CTX-M-2 beta-lactamase by agar dilution method", "assay_type": "functional"}, "Escherichia coli [2]": {"test_system": "Escherichia coli", "assay": "Antibacterial activity against Escherichia coli DH10B by agar dilution method", "assay_type": "functional", "conditions": "K-12 DH10B"}, "Klebsiella pneumoniae [3]": {"test_system": "Klebsiella pneumoniae", "assay": "Antibacterial activity against Klebsiella pneumoniae urine isolate A28009 PFGE pattern A expressing KPC-2, TEM-1, SHV-11, CTX-M-2 beta-lactamase by agar dilution method", "assay_type": "functional"}, "Klebsiella pneumoniae [4]": {"test_system": "Klebsiella pneumoniae", "assay": "Antibacterial activity against Klebsiella pneumoniae blood isolate A28008 PFGE pattern A expressing KPC-2, TEM-1, SHV-11, CTX-M-2 beta-lactamase by agar dilution method", "assay_type": "functional"}, "Escherichia coli [5]": {"test_system": "Escherichia coli", "assay": "microbe, parasite or virus in culture", "conditions": "K-12 DH10B", "description": "(§1) Antibacterial activity against Escherichia coli DH10B expressing KPC-2 CTX-M-2 by agar dilution method"}, "Klebsiella pneumoniae [6]": {"test_system": "Klebsiella pneumoniae", "assay": "Antibacterial activity against Klebsiella pneumoniae urine isolate A28011 PFGE pattern A expressing KPC-2 CTX-M-2 beta-lactamase by agar dilution method", "assay_type": "functional"}, "Klebsiella pneumoniae [7]": {"test_system": "Klebsiella pneumoniae", "assay": "Antibacterial activity against Klebsiella pneumoniae urine isolate A28011 PFGE pattern A expressing KPC-2, CTX-M-2 beta-lactamase by agar dilution method in presence of Tazobactam", "assay_type": "functional"}, "Klebsiella pneumoniae [8]": {"test_system": "Klebsiella pneumoniae", "assay": "Antibacterial activity against Klebsiella pneumoniae urine isolate A28009 PFGE pattern A expressing KPC-2, TEM-1, SHV-11, CTX-M-2 beta-lactamase by agar dilution method in presence of Tazobactam", "assay_type": "functional"}, "Klebsiella pneumoniae [9]": {"test_system": "Klebsiella pneumoniae", "assay": "Antibacterial activity against Klebsiella pneumoniae blood isolate A28008 PFGE pattern A expressing KPC-2, TEM-1, SHV-11, CTX-M-2 beta-lactamase by agar dilution method in presence of Tazobactam", "assay_type": "functional"}, "Klebsiella pneumoniae [10]": {"test_system": "Klebsiella pneumoniae", "assay": "Antibacterial activity against Klebsiella pneumoniae blood isolate A28006 PFGE pattern A expressing KPC-2, TEM-1, SHV-11, CTX-M-2 beta-lactamase by agar dilution method in presence of Tazobactam", "assay_type": "functional"}, "Klebsiella pneumoniae [11]": {"test_system": "Klebsiella pneumoniae", "assay": "Antibacterial activity against Klebsiella pneumoniae blood isolate A28008 PFGE pattern A expressing KPC-2, TEM-1, SHV-11, CTX-M-2 beta-lactamase by Etest method", "assay_type": "functional"}, "Klebsiella pneumoniae [12]": {"test_system": "Klebsiella pneumoniae", "assay": "Antibacterial activity against Klebsiella pneumoniae urine isolate A28011 PFGE pattern A expressing KPC-2, CTX-M-2 beta-lactamase by Etest method", "assay_type": "functional"}, "Klebsiella pneumoniae [13]": {"test_system": "Klebsiella pneumoniae", "assay": "Antibacterial activity against Klebsiella pneumoniae urine isolate A28009 PFGE pattern A expressing KPC-2, TEM-1, SHV-11, CTX-M-2 beta-lactamase by Etest method", "assay_type": "functional"}, "Klebsiella pneumoniae [14]": {"test_system": "Klebsiella pneumoniae", "assay": "Antibacterial activity against Klebsiella pneumoniae blood isolate A28006 PFGE pattern A expressing KPC-2, TEM-1, SHV-11, CTX-M-2 beta-lactamase by Etest method", "assay_type": "functional"}, "Escherichia coli [15]": {"test_system": "Escherichia coli", "assay": "Antibacterial activity against Escherichia coli DH10B expressing KPC-2 CTX-M-2 by Etest method", "assay_type": "functional", "conditions": "K-12 DH10B"}, "Escherichia coli [16]": {"test_system": "Escherichia coli", "assay": "Antibacterial activity against Escherichia coli DH10B by Etest method", "assay_type": "functional", "conditions": "K-12 DH10B"}, "Escherichia coli [17]": {"test_system": "Escherichia coli", "conditions": "K-12 DH10B", "description": "as §1"}}}
{"molecule": "CO/N=C(\\C(=O)N[C@@H]1C(=O)N2C(C(=O)[O-])=C(C[N+]3(C)CCCC3)CS[C@H]12)c1csc(N)n1", "values": [{"measurement": "MIC", "setting": "Klebsiella pneumoniae [1]", "result": 128, "unit": "µg/mL"}, {"measurement": "MIC", "setting": "Escherichia coli [2]", "result": 0.25, "unit": "µg/mL"}, {"measurement": "MIC", "setting": "Klebsiella pneumoniae [3]", "result": 64, "unit": "µg/mL"}, {"measurement": "MIC", "setting": "Klebsiella pneumoniae [4]", "result": 32, "unit": "µg/mL"}, {"measurement": "MIC", "setting": "Escherichia coli [5]", "result": 2, "unit": "µg/mL"}, {"measurement": "MIC", "setting": "Klebsiella pneumoniae [6]", "result": "> 256", "unit": "µg/mL"}]}
{"molecule": "C[C@H]1[C@H](NC(=O)/C(=N\\OC(C)(C)C(=O)O)c2csc(N)n2)C(=O)N1S(=O)(=O)O", "note": "[AZTREONAM]", "values": [{"measurement": "MIC", "setting": "Klebsiella pneumoniae [3]", "result": "> 256", "unit": "µg/mL"}, {"measurement": "MIC", "setting": "Klebsiella pneumoniae [4]", "result": 64, "unit": "µg/mL"}, {"measurement": "MIC", "setting": "Escherichia coli [5]", "result": 32, "unit": "µg/mL"}, {"measurement": "MIC", "setting": "Klebsiella pneumoniae [6]", "result": "> 256", "unit": "µg/mL"}]}
{"molecule": "CO/N=C(\\C(=O)N[C@@H]1C(=O)N2C(C(=O)O)=C(COC(C)=O)CS[C@H]12)c1csc(N)n1", "note": "[CEFOTAXIME]", "values": [{"measurement": "MIC", "setting": "Klebsiella pneumoniae [1]", "result": "> 256", "unit": "µg/mL"}, {"measurement": "MIC", "setting": "Escherichia coli [2]", "result": "< 0.25", "unit": "µg/mL"}, {"measurement": "MIC", "setting": "Klebsiella pneumoniae [3]", "result": "> 256", "unit": "µg/mL"}, {"measurement": "MIC", "setting": "Klebsiella pneumoniae [4]", "result": "> 256", "unit": "µg/mL"}, {"measurement": "MIC", "setting": "Escherichia coli [5]", "result": 4, "unit": "µg/mL"}, {"measurement": "MIC", "setting": "Klebsiella pneumoniae [6]", "result": "> 256", "unit": "µg/mL"}]}
{"molecule": "CO[C@@]1(NC(=O)Cc2cccs2)C(=O)N2C(C(=O)O)=C(COC(N)=O)CS[C@@H]21", "note": "[CEFOXITIN]", "values": [{"measurement": "MIC", "setting": "Klebsiella pneumoniae [1]", "result": 32, "unit": "µg/mL"}, {"measurement": "MIC", "setting": "Escherichia coli [2]", "result": 4, "unit": "µg/mL"}, {"measurement": "MIC", "setting": "Klebsiella pneumoniae [3]", "result": 64, "unit": "µg/mL"}, {"measurement": "MIC", "setting": "Klebsiella pneumoniae [4]", "result": 16, "unit": "µg/mL"}, {"measurement": "MIC", "setting": "Escherichia coli [5]", "result": 8, "unit": "µg/mL"}, {"measurement": "MIC", "setting": "Klebsiella pneumoniae [6]", "result": "> 256", "unit": "µg/mL"}]}
{"molecule": "CC(C)(O/N=C(\\C(=O)N[C@@H]1C(=O)N2C(C(=O)[O-])=C(C[n+]3ccccc3)CS[C@H]12)c1csc(N)n1)C(=O)O", "note": "[CEFTAZIDIME]", "values": [{"measurement": "MIC", "setting": "Klebsiella pneumoniae [1]", "result": 16, "unit": "µg/mL"}, {"measurement": "MIC", "setting": "Escherichia coli [2]", "result": 0.25, "unit": "µg/mL"}, {"measurement": "MIC", "setting": "Klebsiella pneumoniae [3]", "result": 32, "unit": "µg/mL"}, {"measurement": "MIC", "setting": "Klebsiella pneumoniae [4]", "result": 16, "unit": "µg/mL"}, {"measurement": "MIC", "setting": "Escherichia coli [5]", "result": 4, "unit": "µg/mL"}, {"measurement": "MIC", "setting": "Klebsiella pneumoniae [6]", "result": 64, "unit": "µg/mL"}]}
{"molecule": "CO/N=C(\\C(=O)N[C@@H]1C(=O)N2C(C(=O)O)=C(CSc3nc(=O)c(O)nn3C)CS[C@H]12)c1csc(N)n1", "note": "[CEFTRIAXONE]", "values": [{"measurement": "MIC", "setting": "Klebsiella pneumoniae [1]", "result": "> 256", "unit": "µg/mL"}, {"measurement": "MIC", "setting": "Escherichia coli [2]", "result": 0.06, "unit": "µg/mL"}, {"measurement": "MIC", "setting": "Klebsiella pneumoniae [3]", "result": "> 256", "unit": "µg/mL"}, {"measurement": "MIC", "setting": "Klebsiella pneumoniae [4]", "result": "> 256", "unit": "µg/mL"}, {"measurement": "MIC", "setting": "Escherichia coli [5]", "result": "> 256", "unit": "µg/mL"}, {"measurement": "MIC", "setting": "Klebsiella pneumoniae [6]", "result": "> 256", "unit": "µg/mL"}]}
{"molecule": "C[C@@H](O)[C@H]1C(=O)N2C(C(=O)O)=C(SCCNC=N)C[C@H]12", "note": "[IMIPENEM ANHYDROUS]", "values": [{"measurement": "MIC", "setting": "Klebsiella pneumoniae [1]", "result": 4, "unit": "µg/mL"}, {"measurement": "MIC", "setting": "Klebsiella pneumoniae [3]", "result": 32, "unit": "µg/mL"}, {"measurement": "MIC", "setting": "Klebsiella pneumoniae [4]", "result": 32, "unit": "µg/mL"}, {"measurement": "MIC", "setting": "Escherichia coli [5]", "result": 2, "unit": "µg/mL"}, {"measurement": "MIC", "setting": "Klebsiella pneumoniae [6]", "result": 16, "unit": "µg/mL"}]}
{"molecule": "C[C@@H](O)[C@H]1C(=O)N2C(C(=O)O)=C(S[C@@H]3CN[C@H](C(=O)N(C)C)C3)[C@H](C)[C@H]12", "note": "[MEROPENEM]", "values": [{"measurement": "MIC", "setting": "Klebsiella pneumoniae [1]", "result": 32, "unit": "µg/mL"}, {"measurement": "MIC", "setting": "Escherichia coli [2]", "result": 0.25, "unit": "µg/mL"}, {"measurement": "MIC", "setting": "Klebsiella pneumoniae [3]", "result": "> 32", "unit": "µg/mL"}, {"measurement": "MIC", "setting": "Klebsiella pneumoniae [4]", "result": 4, "unit": "µg/mL"}, {"measurement": "MIC", "setting": "Escherichia coli [5]", "result": 0.5, "unit": "µg/mL"}, {"measurement": "MIC", "setting": "Klebsiella pneumoniae [6]", "result": "> 32", "unit": "µg/mL"}]}
{"molecule": "CCN1CCN(C(=O)N[C@@H](C(=O)N[C@@H]2C(=O)N3[C@@H]2SC(C)(C)[C@@H]3C(=O)O)c2ccccc2)C(=O)C1=O", "note": "[PIPERACILLIN]", "values": [{"measurement": "MIC", "setting": "Klebsiella pneumoniae [7]", "result": 8, "unit": "µg/mL"}, {"measurement": "MIC", "setting": "Klebsiella pneumoniae [8]", "result": 16, "unit": "µg/mL"}, {"measurement": "MIC", "setting": "Klebsiella pneumoniae [9]", "result": 16, "unit": "µg/mL"}, {"measurement": "MIC", "setting": "Klebsiella pneumoniae [10]", "result": 16, "unit": "µg/mL"}]}
{"molecule": "CN(C)c1cc(NC(=O)CNC(C)(C)C)c(O)c2c1C[C@H]1C[C@H]3[C@H](N(C)C)C(O)=C(C(N)=O)C(=O)[C@@]3(O)C(O)=C1C2=O", "note": "[TIGECYCLINE]", "values": [{"measurement": "MIC", "setting": "Klebsiella pneumoniae [11]", "result": 0.38, "unit": "µg/mL"}, {"measurement": "MIC", "setting": "Klebsiella pneumoniae [12]", "result": 0.5, "unit": "µg/mL"}, {"measurement": "MIC", "setting": "Klebsiella pneumoniae [13]", "result": 0.38, "unit": "µg/mL"}, {"measurement": "MIC", "setting": "Klebsiella pneumoniae [14]", "result": 0.38, "unit": "µg/mL"}, {"measurement": "MIC", "setting": "Escherichia coli [15]", "result": 0.06, "unit": "µg/mL"}, {"measurement": "MIC", "setting": "Escherichia coli [16]", "result": 0.06, "unit": "µg/mL"}]}
{"molecule": "GENTAMICIN", "values": [{"measurement": "MIC", "setting": "Klebsiella pneumoniae [1]", "result": 1, "unit": "µg/mL"}, {"measurement": "MIC", "setting": "Escherichia coli [2]", "result": 0.12, "unit": "µg/mL"}, {"measurement": "MIC", "setting": "Klebsiella pneumoniae [3]", "result": 1, "unit": "µg/mL"}, {"measurement": "MIC", "setting": "Escherichia coli [17]", "result": 0.12, "unit": "µg/mL"}, {"measurement": "MIC", "setting": "Klebsiella pneumoniae [4]", "result": 1, "unit": "µg/mL"}, {"measurement": "MIC", "setting": "Klebsiella pneumoniae [6]", "result": 1, "unit": "µg/mL"}]}
{"molecule": "POLYMYXIN B", "values": [{"measurement": "MIC", "setting": "Klebsiella pneumoniae [1]", "result": 2, "unit": "µg/mL"}, {"measurement": "MIC", "setting": "Escherichia coli [2]", "result": 0.38, "unit": "µg/mL"}, {"measurement": "MIC", "setting": "Klebsiella pneumoniae [3]", "result": 2, "unit": "µg/mL"}, {"measurement": "MIC", "setting": "Escherichia coli [17]", "result": 0.38, "unit": "µg/mL"}, {"measurement": "MIC", "setting": "Klebsiella pneumoniae [4]", "result": 2, "unit": "µg/mL"}, {"measurement": "MIC", "setting": "Klebsiella pneumoniae [6]", "result": 2, "unit": "µg/mL"}]}
